Measured values: patent publication US20040258779A1, “Dietary and pharmaceutical compositions for treatment of anemia, thrombocytopenia, and leukopenia” (priority 2003, published 2004)
“And” between values parts separate entries of the source, which are not always exact repeats. Equal entries are not always repeated.

Tests used:
[1] = system: monocytes; experiment: Active oxygen forms by monocytes, cytofluorometry; assay type: cell-based, human; set-up: formation of active oxygen forms by monocytes: unit not given here; details: for formation of active oxygen forms by monocytes: single donors and mean M
Description: (§1) This effect was evaluated by luminal dependent chemoluminiscence and cytofluorometry. In the second case the leukocytes were added to dichlorofluoroscein […]). This substance is originally non fluorescence one. However, after the penetration into the cells it is turned into green fluorochrom in the presence of the hydrogen peroxide. The reaction was monitored in the flow cytometer FACSCalibur.

[2] = system: human mononuclear blood cells; experiment: TNF alpha production by human mononuclear blood cells; assay type: cell-based; details: for TNF alpha synthesis by mononuclear cells, in words: versus control samples
Description: PL-3 was added in concentrations of 100 μg/ml, 10 μg/ml, 1 μg/ml, and feeding media was added to the control wells. Cytokine content was defined by IFA with commercial kit […] (Cytimmune, USA).

[3] = system: interferon-γ
[4] = Hypersensitivity of the delayed type
[5] = system: target cells K-562; experiment: Natural killer cell cytotoxicity on 3H-uridine labeled target cells; assay type: cell-based, human; details: for function of natural killer cells, Cytotoxicity (%): 3 hours incubation, K-562 targets, donors 1-7 and mean M
Description: Cells were separated after 3 hours of the incubation at 37° C. in CO2 incubator. Their cytotoxic action on the target cells K-562 labeled with ^3H-uridine was evaluated.

[6] = system: neutrophils; experiment: Active oxygen forms by neutrophils, cytofluorometry; assay type: cell-based, human; details: versus control data (p=0.08)
Description: as §1

[7] = system: leukocytes of the healthy donors; experiment: Active oxygen forms by leukocytes, luminol dependent chemoluminiscence; assay type: cell-based, human
Description: This effect was evaluated by luminal dependent chemoluminiscence and cytofluorometry. In the first case leukocytes were separated by gelatin and connected with luminal, human serum and added to the vials with the different concentration of the substance.

[8] = system: human mononuclear cells; experiment: Cell longevity of mononuclear leukocytes, propidium iodide flow cytometry; assay type: cell-based; details: for cell longivity (percentage of dead cells): time not given (twofold reduction after 72 hours), donors 1-3 and mean M; for cell longevity: after 24 hours treatment; for cell longevity, protective effect: after 48 hours of incubation; for percentage of dead cells: after 72 hours of the incubation
[9] = system: human mononuclear cells; experiment: GM-CSF production by the human mononuclear cells; assay type: cell-based; details: for GM-CSF production by the human mononuclear cells: donors 1-7 and mean M±; for GM-CSF synthesis, in words: versus random synthesis (control), statistically significant
Description: PL-3 was added in concentrations of 100 μg/ml, 10 μg/ml, 1 μg/ml, and feeding media was added to the control wells. Cytokine content was defined by IFA with commercial kit […] (Cytimmune, USA). The effect of PL-3 on the synthesis of GM-CSF was evaluated accordingly to the previous method.

## CC(=O)NC1C(OC2C(CO)OC(O)C(NC(C)=O)C2OC(C)C(=O)NC(C)C(=O)NC(CCC(=O)NC(CCCC(N)C(=O)O)C(=O)NC(C)C(=O)O)C(N)=O)OC(CO)C(O)C1O [PL-3, N-acetyl-glucosamine-N-acetyl-muramyl-L-alanine-D-isoglutamine-diaminopimenic acid-D-alanine]
[1]
  generation of active oxygen forms by monocytes, in words: do not generate the active oxygen forms
[1]; concentration 1.0 (unit not given), listed as GMTP
  formation of active oxygen forms by monocytes: 31 and 15 and 29 and 50 and 25 (2×) and 18 (2×) and 16
[1]; concentration 1.0 (unit not given), listed as GMTP, mean
  formation of active oxygen forms by monocytes: 25.2
[1]; concentration 10.0 (unit not given), listed as GMTP
  formation of active oxygen forms by monocytes: 29 and 14 (2×) and 18 (2×) and 13 and 32 and 17 and 15
[1]; concentration 10.0 (unit not given), listed as GMTP, mean
  formation of active oxygen forms by monocytes: 18.9
[1]; concentration 100.0 (unit not given), listed as GMTP
  formation of active oxygen forms by monocytes: 22 and 18 and 13 and 25 and 20 and 42 and 0.6 and 26 and 31
[1]; concentration 100.0 (unit not given), listed as GMTP, mean
  formation of active oxygen forms by monocytes: 23.8
[2]
  TNF alpha production in comparison with GMDP: enhanced two fold
  TNF alpha synthesis by mononuclear cells, in words: significant increase
[3]
  interferon-γ: does not affect
[4]
  hypersensitivity of the delayed type: absence of its effect
[5]; 1 μg/ml, listed as GMTP
  function of natural killer cells, Cytotoxicity (%): 45% and 56% and 41% and 37% and 55% and 63% and 48%
[5]; 1 μg/ml, listed as GMTP, mean
  function of natural killer cells, Cytotoxicity (%): 49.2%
[5]; 10 μg/ml, listed as GMTP
  function of natural killer cells, Cytotoxicity (%): 55% and 38% and 44% and 43% and 53% and 65% and 57%
[5]; 10 μg/ml, listed as GMTP, mean
  function of natural killer cells, Cytotoxicity (%): 50.7%
[5]; 100 μg/ml
  cytotoxic activity of the natural killer cells, in words: increase the cytotoxic activity
[5]; 100 μg/ml, listed as GMTP
  function of natural killer cells, Cytotoxicity (%): 56% and 55% and 49% and 51% and 66% and 54%
[5]; 100 μg/ml, listed as GMTP, mean
  function of natural killer cells, Cytotoxicity (%): 54.2%
[6]
  active oxygen forms, cytofluometric analysis, in words: stimulated the active oxygen forms
[7]
  ability of leukocytes to generate the active oxygen forms (chemoluminiscence), in words: did not change
[8]; 1 μg/ml
  cell longivity (percentage of dead cells): 16 and 18
[8]; 10 μg/ml
  cell longivity (percentage of dead cells): 16 and 21 and 17
[8]; 10 μg/ml, mean
  cell longivity (percentage of dead cells): 18
[8]; 100 μg/ml
  cell longivity (percentage of dead cells): 19 and 16
[8]; 100 μg/ml, mean
  cell longivity (percentage of dead cells): 18
[8]
  cell longevity: unchanged
  cell longevity, protective effect: weak protective effect
  percentage of dead cells: twofold reduction
[9]; 10 mkg/ml and 100 mkg/ml, p=0.029 and 0.038
  GM-CSF synthesis relative to GMDP: almost two times more
[9]; 10 mkg/ml
  GM-CSF production by the human mononuclear cells: 1109 and 752 and 740 and 1115 and 920 and 1052
[9]; 10 mkg/ml, mean
  GM-CSF production by the human mononuclear cells: 975 ± 282.5
[9]
  GM-CSF synthesis, in words: strong inductors

## CC(=O)N[C@H]1[C@H](O[C@H]2[C@H](O[C@H](C)C(=O)N[C@@H](C)C(=O)N[C@H](CCC(=O)O)C(N)=O)[C@@H](NC(C)=O)C(O)O[C@@H]2CO)O[C@H](CO)[C@@H](O)[C@@H]1O (some centres unmarked) [GMDP, reference compound]
[1]
  generation of active oxygen forms by monocytes, in words: do not generate the active oxygen forms
[1]; concentration 1.0 (unit not given)
  formation of active oxygen forms by monocytes: 27 and 16 (2×) and 23 and 54 and 15 and 12 and 18 and 14
[1]; concentration 10.0 (unit not given)
  formation of active oxygen forms by monocytes: 25 and 14 (2×) and 11 and 16 and 70 and 19 and 15 and 26
[1]; concentration 100.0 (unit not given)
  formation of active oxygen forms by monocytes: 14 and 15 and 12 and 16 (2×) and 34 (2×) and 102 and 19.5
[2]
  TNF alpha synthesis by mononuclear cells, in words: does not lead to the induction
[5]; 1 μg/ml
  function of natural killer cells, Cytotoxicity (%): 51% and 49% and 38% and 44% and 50% and 47%
[5]; 10 μg/ml
  function of natural killer cells, Cytotoxicity (%): 34% and 48% and 45% and 40% and 53% and 47%
[5]; 100 μg/ml
  function of natural killer cells, Cytotoxicity (%): 33% and 48% and 46% and 44% and 50%
[6]
  active oxygen forms, cytofluometric analysis, in words: does not posses this activity
[7]
  ability of leukocytes to generate the active oxygen forms (chemoluminiscence), in words: did not change
[8]; 1 μg/ml
  cell longivity (percentage of dead cells): 16 and 17 and 18
[8]; 10 μg/ml
  cell longivity (percentage of dead cells): 17 and 23 and 21
[8]; 100 μg/ml
  cell longivity (percentage of dead cells): 15 and 18 and 24
[8]
  cell longevity: unchanged
  cell longevity, protective effect: weak protective effect
  percentage of dead cells: twofold reduction
[9]; 100 mkg/ml
  GM-CSF production by the human mononuclear cells: 983 and 584 and 609 and 944 and 581 and 735 and 773
[9]
  GM-CSF synthesis, in words: strong inductors
